Test system: human nasal passage
Test: testing of the nasal spray / nasal wash composition applied to the nasal passages
Type: in vivo
Conditions: CBD at 0.3% by weight in the composition
Experimental: A homogenized mixture of water, cannabinoid, an olfactory stimulant, and inorganic salt when applied to a nasal passage as a mist delivering 0.08 mL to 0.18 mL in each nostril is effective as a nasal wash. A solubilizing agent particularly suited for cannabinoids may also be added, such as those disclosed in U.S. patent application Ser. No. 17/527,465, filed Nov. 16, 2021.
Practicing nasal hygiene by the use of the method of applying to a person's nostril a mist of nasal wash composition comprising the product of compounding under homogenizing conditions water, an amount of a source of chlorine dioxide, 0.1 to 1% by weight cannabinoid; 0.1 to 3% by weight of olfactory stimulant; and 0 to 5% by weight of at least one fixative compound; and blowing air out of the nostril. and composition of the invention, nasal irritation is reduced. […]
It is a feature of the invention that the practice of nasal hygiene according to the invention requires only moderate and convenient quantities of the composition. It is sufficient for the user to place a convenient quantity of the composition, which can range from about 0.3 to 3 milliliters, into each nostril and retain it for a holding period which can range from a fraction of a minute to about ten minutes or as long as comfortable, and then remove it as by blowing the nose. […]

For `C=C(C)[C@@H]1CCC(C)=C[C@H]1c1c(O)cc(CCCCC)cc1O` [CBD, Cannabidiol], which pain relief is on record?
The pain relief was “effective pain relief”.

Source: patent US20230157945A1, “Nasal Hygiene Method and Formulation” (ACTUAL NATURAL HEALTH & WELLNESS PRODUCTS, INC., priority 2018, published 2023)
